# Patent US9051331B2, “Substituted dihydro benzocycloalkyloxymethyl oxazolopyrimidinones, preparation and use thereof” (Sanofi, priority 2009, dated 2015)
# Experiments:
# [1] = biological target: rat or human mGluR2 receptor (UniProt Q14416); experiment: calcium ion (Ca2+) mobilization assay for allosteric modulators of mGluR2; format: cell-based; conditions: potency at approx. EC10 for glutamate; rat or human receptor not given; read-out: mGluR2 Potentiation (EC50)
# Source text: A calcium ion (Ca^2) mobilization assay was used to identify and determine the activity for allosteric modulators of the rat or human mGluR2 receptor. Two formats were used: (1) examine the ability of glutamate to affect the potency of the modulator, by looking at a concentration-response curve of compound at different submaximal glutamate concentrations, and (2) look at the ability of the modulator to affect the potency of glutamate by looking at a concentration-response curve of glutamate at a maximal modulator concentration.
# To monitor functional receptor response using calcium mobilization, a cell line stably expressing the rat or human mGluR2 receptor (normally coupled to its intracellular effector molecules through an inhibitory G-protein, Gαi) and Gα16, in a tetracycline-inducible vector was created. Gα16 can promiscuously couple Gs and Gi-coupled receptors to the inositol phospholipid signaling pathway by activating phospholipase Cβ resulting in a Ca^2+ signal (normally Gαq-mediated), that can be monitored with fluorescence plate readers such as FLIPR (Molecular Devices, Fluorescence Imaging Plate Reader), FDSS6000 (Hamamatsu, Fluorescence Drug Screening System), or FlexStation (Molecular Devices). The Ca^2+ mobilization assay was based on the detection of intracellular calcium changes using a selective, calcium-chelating dye: Fluo-3, Fluo-4, or Calcium-3. A large fluorescence intensity increase was observed upon calcium association with the dye. The dye was delivered either with the acetoxy-methyl ester, and washed off, or using a no-wash kit (Molecular Devices). Fluorescence signals stimulated by glutamate were recorded and used to generate the following pharmacological parameters: (1) the potency (EC50) of the compound(s) of interest at approx. EC 10 for glutamate at the rat and human mGluR2 receptors respectively, and (2) a fold-shift of the glutamate EC50 by maximal concentration of compound(s) of interest.
# [2] = mice; cited from earlier work
# [3] = rat; cited from earlier work
# [4] = DBA/2 mice; cited from earlier work
# [5] = pretreatment, healthy human subjects; cited from earlier work
# [6] = pentylenetetrazole- and picrotoxin-induced; cited from earlier work
# [7] = some animal models; cited from earlier work
# [8] = compared to placebo; cited from earlier work
SMILES,EC50 [1] [nM],further results
"CCc1cn2c(nc1=O)O[C@H](COc1ccc3c(c1)CCC3(C)C)C2 [Example 7, (S)-2-(1,1-Dimethyl-indan-5-yloxymethyl)-6-ethyl-2,3-dihydro-oxazolo[3,2-a]pyrimidin-7-one]",20,–
"CC1(C)CCCCc2cc(OC[C@@H]3Cn4ccc(=O)nc4O3)ccc21 [Example 3, (S)-2-(5,5-Dimethyl-6,7,8,9-tetrahydro-5H-benzocyclohepten-2-yloxymethyl)-2,3-dihydro-oxazolo[3,2-a]pyrimidin-7-one]",11,–
"CC1(C)CCc2cc(OC[C@H]3Cn4ccc(=O)nc4O3)ccc21 [Comparative Ex. 3, (R)-2-(1,1-Dimethyl-indan-5-yloxymethyl)-2,3-dihydro-oxazolo[3,2-a]pyrimidin-7-one]",9100,–
Cc1c(OCc2cccc(-c3ccc(C(=O)O)cc3)c2)cc2c(c1C)C(=O)C(C1CCCC1)C2 (stereo not drawn) [biphenyl-indanone A],–,antipsychotic- and anxiolytic-like effects [2]: antipsychotic- and anxiolytic-like effects in mice
"O=c1ccn2c(n1)O[C@H](COc1ccc3c(c1)CCC3)C2 [Comparative Ex. 1, (S)-2-(Indan-5-yloxymethyl)-2,3-dihydro-oxazolo[3,2-a]pyrimidin-7-one]",445,–
"O=c1ccn2c(n1)O[C@H](COc1ccc3c(c1)CCCC3)C2 [Comparative Ex. 2, (S)-2-(5,6,7,8-Tetrahydro-naphthalen-2-yloxymethyl)-2,3-dihydro-oxazolo[3,2-a]pyrimidin-7-one]",224,–
N[C@@]1(C(=O)O)CO[C@H]2[C@H](C(=O)O)[C@H]21 [LY379268],–,effect on REM sleep and fast EEG [3]: suppresses rapid eye movement (REM) sleep and fast EEG
"CCC(F)(F)c1cc(=O)nc2n1C[C@@H](COc1ccc3c(c1)CCCC3(C)C)O2 [Example 10, (S)-5-(1,1-Difluoro-propyl)-2-(5,5-dimethyl-5,6,7,8-tetrahydro-naphthalen-2-yloxymethyl)-2,3-dihydro-oxazolo[3,2-a]pyrimidin-7-one]",15,–
"CC1(C)CCCc2cc(OC[C@@H]3Cn4ccc(=O)nc4O3)ccc21 [Example 2, (S)-2-(5,5-Dimethyl-5,6,7,8-tetrahydro-naphthalen-2-yloxymethyl)-2,3-dihydro-oxazolo[3,2-a]pyrimidin-7-one]",19,–
N[C@H](C(=O)O)c1ccc(C(=O)O)c(O)c1 [(S)-4-carboxy-3-hydroxyphenylglycine],–,protection against audiogenic seizures [4]: protects against audiogenic seizures
N[C@@]1(C(=O)O)CC[C@H]2[C@H](C(=O)O)[C@H]21 [LY354740],–,effect on ketamine-disrupted working memory [5]: attenuation of the disruptive effects; effect on chemically induced seizures [6]: attenuates pentylenetetrazole- and picrotoxin-induced seizures
"CCC(F)(F)c1cc(=O)nc2n1C[C@@H](COc1ccc3c(c1)CCC3(C)C)O2 [Example 9, (S)-5-(1,1-Difluoro-propyl)-2-(1,1-dimethyl-indan-5-yloxymethyl)-2,3-dihydro-oxazolo[3,2-a]pyrimidin-7-one]",64,–
"CC1(C)CCc2cc(OC[C@@H]3Cn4ccc(=O)nc4O3)ccc21 [Example 1, (S)-2-(1,1-Dimethyl-indan-5-yloxymethyl)-2,3-dihydro-oxazolo[3,2-a]pyrimidin-7-one]",29,–
"CC1(C)CCC(C)(C)c2cc(OC[C@@H]3Cn4ccc(=O)nc4O3)ccc21 [Example 4, (S)-2-(5,5,8,8-Tetramethyl-5,6,7,8-tetrahydro-naphthalen-2-yloxymethyl)-2,3-dihydro-oxazolo[3,2-a]pyrimidin-7-one]",15,–
N[C@]1(C(=O)O)[C@H]2[C@@H](C[C@H]1OCc1ccc(Cl)c(Cl)c1)[C@]2(F)C(=O)O [MGS0039],–,antidepressant-like effects [7]: dose-dependent antidepressant-like effects
CSCC[C@H](N)C(=O)N[C@@]1(C(=O)O)CS(=O)(=O)[C@H]2[C@H](C(=O)O)[C@H]21 [LY2140023],–,positive and negative symptoms of schizophrenia [8]: statistically significant improvements
"CCc1cn2c(nc1=O)O[C@H](COc1ccc3c(c1)CCCC3(C)C)C2 [Example 8, (S)-2-(5,5-Dimethyl-5,6,7,8-tetrahydro-naphthalen-2-yloxymethyl)-6-ethyl-2,3-dihydro-oxazolo[3,2-a]pyrimidin-7-one]",17,–
